Literature values, collected in patent publication US20260284157A1, “POWDER COMPOSITION COMPRISING A HAEMOSTATIC AGENT” (WOMED, priority 2023, published 2026).

Settings: certificate of analysis of the product (Sigma Aldrich)

Thrombin
activity of the protein: > 400 NIH units/mg protein
